Measurements from paper PMC11790763, “A Peptide Motif Covering Splice Site B in Neuroligin-1 Binds to Aβ and Acts as a Neprilysin Inhibitor” (Molecular Neurobiology, 2024).
Bridges are numbered along the chain shown (N, C = ends). Roman numbers before positions name the chains, in order. Where no end group is shown, it is not given here.

T1: brain-derived NEP (Mus musculus, UniProt Q61391)
T1 construct: Clear supernatants were used as membrane-extracted fractions; from tissue; host or cells: adult mouse brain without cerebellum, Triton X-100-extracted membrane fraction
T1 sequence (Q61391 1-750): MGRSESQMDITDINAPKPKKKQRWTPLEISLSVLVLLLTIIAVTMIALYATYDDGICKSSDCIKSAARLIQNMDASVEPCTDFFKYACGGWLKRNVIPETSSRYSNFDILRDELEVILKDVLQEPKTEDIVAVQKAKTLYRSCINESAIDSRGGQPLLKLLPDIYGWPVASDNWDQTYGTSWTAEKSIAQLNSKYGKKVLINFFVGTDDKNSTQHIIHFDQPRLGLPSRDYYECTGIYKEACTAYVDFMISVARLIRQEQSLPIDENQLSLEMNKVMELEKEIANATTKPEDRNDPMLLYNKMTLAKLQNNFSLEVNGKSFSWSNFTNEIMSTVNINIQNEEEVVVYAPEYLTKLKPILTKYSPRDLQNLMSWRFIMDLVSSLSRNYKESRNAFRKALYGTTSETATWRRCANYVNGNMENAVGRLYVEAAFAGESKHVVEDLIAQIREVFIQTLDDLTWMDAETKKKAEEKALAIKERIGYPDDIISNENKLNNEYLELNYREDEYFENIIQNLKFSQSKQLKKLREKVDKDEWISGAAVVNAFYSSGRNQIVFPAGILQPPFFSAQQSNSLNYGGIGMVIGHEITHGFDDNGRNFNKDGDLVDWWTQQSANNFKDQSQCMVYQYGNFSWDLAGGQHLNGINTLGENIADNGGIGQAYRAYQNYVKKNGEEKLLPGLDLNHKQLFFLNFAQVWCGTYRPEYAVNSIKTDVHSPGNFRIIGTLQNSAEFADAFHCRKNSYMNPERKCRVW

B1: NL1: recombinant rat neuroligin-1, soluble ectodomain (R&D systems) (protein, UniProt Q62765 46-697, looked up)
extracellular domain: QKLDDVDPLVTTNFGKIRGIKKELNNEILGPVIQFLGVPYAAPPTGEHRFQPPEPPSPWSDIRNATQFAPVCPQNIIDGRLPEVMLPVWFTNNLDVVSSYVQDQSEDCLYLNIYVPTEDVKRISKECARKPGKKICRKGDIRDSGGPKPVMVYIHGGSYMEGTGNLYDGSVLASYGNVIVITVNYRLGVLGFLSTGDQAAKGNYGLLDLIQALRWTSENIGFFGGDPLRITVFGSGAGGSCVNLLTLSHYSEGNRWSNSTKGLFQRAIAQSGTALSSWAVSFQPAKYARILATKVGCNVSDTVELVECLQKKPYKELVDQDVQPARYHIAFGPVIDGDVIPDDPQILMEQGEFLNYDIMLGVNQGEGLKFVENIVDSDDGVSASDFDFAVSNFVDNLYGYPEGKDVLRETIKFMYTDWADRHNPETRRKTLLALFTDHQWVAPAVATADLHSNFGSPTYFYAFYHHCQTDQVPAWADAAHGDEVPYVLGIPMIGPTELFPCNFSKNDVMLSAVVMTYWTNFAKTGDPNQPVPQDTKFIHTKPNRFEEVAWTRYSQKDQLYLHIGLKPRVKEHYRANKVNLWLELVPHLHNLNDISQYTSTTTKVPSTDITLRPTRKNSTPVTSAFPTAKQDDPKQQPSPFSVDQRDYSTELS
modifications: extracellular domain

Assays:
[1] = molecular target: T1, brain-derived NEP; test: Neprilysin activity in NEP-enriched brain membrane fraction of 5XFAD mice; format: biochemical, mouse (5XFAD); conditions: 5XFAD mice membrane fraction; neurolide 10 μM; n = 6
Procedure: To measure NEP activity in brain tissue, whole brains without cerebellum were dissected from adult mice (C57Bl/6j or 5XFAD) and homogenized with a Teflon-glass homogenizer in five volumes (w/v) of ice-cold lysis buffer containing PBS (pH 7.4), 0.25 M sucrose and protease inhibitor cocktail (Complete™, EDTA-free, Roche Diagnostics, Indianapolis, IN). The homogenates were centrifuged at 9000 × g for 15 min at 4 °C. The supernatants were further centrifuged at 20,000 × g at 4 °C for 20 min. The resulting pellets were solubilized in resuspension buffer containing PBS (pH 7.4) and 1% Triton X-100 for 1 h on ice and again centrifuged at 20,000 × g at 4 °C for 20 min. Clear supernatants were used as membrane-extracted fractions. Protein concentrations of Triton-extracted membrane fractions were determined using the Pierce BCA Protein Assay kit (Thermo Fisher Scientific). The standard assay mixture consisted of membrane fraction containing 40 μg total protein diluted in 40 μl of dilution buffer, 10 μl of testing compound (NL1, neurolide or vehicle), and 50 μl of NEP substrate (5-FAM/QXL; Anaspec) in a total volume of 100 μl. The reaction was initiated by adding substrate to the assay mixture. […] Fluorescence was measured at Ex/Em = 485/535 nm every 20 min for 2 h. The data were expressed as percentage of relative activity of neprilysin.

[2] = system: WT and 5XFAD mice; test: Y-maze test; format: in vivo, mouse; conditions: 10 mg/kg s.c. three times a week for 10 weeks
Procedure: At the age of 2 months, 5XFAD and WT mice were injected subcutaneously (s.c.) with either neurolide (10 mg/kg) or saline in a volume of 0.1 ml/10 g of body weight three times a week for 10 weeks.
To estimate the effect of neurolide on spatial working memory, the Y-maze test was used, wherein the recording of alternation behavior was assessed. Mice were placed in the middle of the three-arm maze, joined with equal angle between all arms, and allowed to explore the maze freely for 8 min. The sequence and total number of entries into each arm were assessed in video recordings. Arm entry was considered completed when the hind paws of the mouse had been placed in the arm. An actual alternation was defined as entries into all three arms on consecutive choices. Percentage alternation was calculated as the ratio of actual to possible alternation (defined as total number of arm entries − 2) × 100, as follows: %Alternation=Number of alternations/Total arm entries-2×100.

[3] = cited from earlier work
[4] = molecular target: T2, recombinant rat NL1 (Rattus norvegicus, UniProt Q62765); test: Surface plasmon resonance binding to immobilized NL1; conditions: SPR, KD for Aβ1-42 versus KD for NX1β
T2 construct: the extracellular domain of NL1 was immobilized on a sensor chip; purchased R&D systems (Abingdon, UK)
Procedure: Binding analysis was performed on a Biacore 2000 SPR biosensor (GE Healthcare) at 25 °C using HBS-P (10 mM HEPES, pH 7.4, 150 mM NaCl, 0.005% [v/v] Surfactant P20) supplemented with 3 mM CaCl2 as a running buffer. Approximately 2000 Resonance Units (RU) of NL1 was immobilized on a CM4 sensor chip at a flow rate of 5 μl/min by amine coupling. Binding to serially diluted recombinant NX1β, used as a positive control, was performed as previously described. Aβ1-42 was dissolved in anhydrous DMSO to a stock concentration of 3.21 mM followed by serial dilution in running buffer. Peptide was injected into the chip, and binding experiments were performed at a flow rate of 20 μl/min, followed by regeneration of sensor chip with 10 μl of 15 mM NaOH and 150 mM NaCl. After subtraction of blank control, the binding curves were analyzed based on a nonlinear curve fitting using a 1:1 Langmuir binding model and the software package BIAevaluation 4 (GE Healthcare). The apparent equilibrium constant (KD) was calculated as kd/ka, in which ka and kd are the apparent association and dissociation constants, respectively.

| Molecule | NEP activity compared to untreated 5XFAD control [1] | Y-maze number of arms entered ([2]; p-value for treatment 0.9532) | Y-maze alternation rate ([2]; test at week 11) | passage of the blood–brain-barrier [3] | plasma/CSF ratio ([3]; systemically given) | levels in CSF ([3]; within 30 min after single s.c. administration) | affinity constant KD of NL1 to Aβ, times lower compared to NX1β [4] |
| --- | --- | --- | --- | --- | --- | --- | --- |
| I: SEGNRWSNSTKGLFQRAKK-NH2 / II: SEGNRWSNSTKGLFQRAK / III: SEGNRWSNSTKGLFQRA / IV: SEGNRWSNSTKGLFQRA (amide I:18-IV:C, I:19-II:C, II:18-III:C; C-terminus assumed) [neurolide] | significant decrease | had no effect | had no effect | in the range of nanograms | approximately 20 | nanogram/low microgram levels | – |
| B1 | – | – | – | – | – | – | approximately 11 times |
